Patent US7465452B2, “Tumor antigen” (Green Peptide Co., Ltd., priority 1999, dated 2008)

Legend:
Assay type in all cases: cell-based, human
[1] = tested on: HLA-A2402-restricted KE4-CTLs; experiment: IFN-γ production by KE4-CTLs stimulated with peptide-pulsed ClR/A2402 cells (ELISA); conditions: ClR/A2402 cells pulsed with 10 μM peptide for 2 h, KE4-CTLs 18 h
Experimental: In order to specify the tumor antigen peptide capable of binding to the HLA-A24 molecule, which is derived from Lck, thirteen different peptides were synthesized and loaded onto ClR/A2402 so as to test the ability of enhancing the IFN-γ production by KE4-CTLs.
In order to specify the tumor antigen, ClR/A2402 (2×10^4) cells transfected with HLA-A2402 were pulsed with a peptide at a final concentration of 10 μM for 2 h. KE4-CTLs (1×10^4) were then added, and incubated for 18 h. 100 μl of the supernatant was collected to measure IFN-γ by ELISA.
On the other hand, the activity of Lck208-216 (SEQ ID NO:3) was detected at 100 nM or higher (FIG. 4).

[2] = tested on: OK-CTL; experiment: IFN-γ production by HLA-A2-restricted OK-CTL with peptide-pulsed VA13 cells; conditions: VA13 cells transfected with HLA-A2, pulsed with 10 μM peptide 2 h
Experimental: (§1) In order to specify an HLA-A2 molecule-binding tumor antigen peptide derived from Lck, 24 different peptides were synthesized to introduce into VA 13 (HLA-A02), and an ability of enhancing INF-γ production by OK-CTL or GK-CTL subline (2-2-4) was tested in a manner similar to one used in Example 3.
(§2) In order to specify the tumor antigen peptide, 2×10^4 of VA13 cells transfected with HLA-A2 were pulsed with the peptide at a final concentration of 10 μM for 2 h. 1×10^4 of KE4-CTLs were then added and incubated for 18 h. 100 μl of the supernatant was collected to measure IFN-γ by ELISA.

[3] = tested on: GK-CTL subline (2-2-4); experiment: IFN-γ production by HLA-A2-restricted GK-CTL subline (2-2-4) with peptide-pulsed VA13 cells; conditions: VA13 cells transfected with HLA-A2, pulsed with 10 μM peptide 2 h
Experimental: as §1, §2

[4] = tested on: KE4-CTL; experiment: Activation of KE4-CTLs by Src family peptides incubated with SW620 cells (IFN-γ); conditions: 10 μg/ml peptide, SW620 target cells
Experimental: Based on these amino acid sequences of the peptides derived from Src family, Src511-519 (SEQ ID NO:4) (TFEYLQAFL), Yes508-516 (SEQ ID NO:5) (TFEYIQSFL), Fyn512-520 (SEQ ID NO:6) (TFEYLQSFL), Lyn489-497 (SEQ ID NO:7) (TFDYLQSVL), Hck503-511 (SEQ ID NO:8) (TFEYIQSVL), and Blk482-490 (SEQ ID NO:9) (TFEFLQSVL) were synthesized, and 10 μg/ml of each peptide was incubated with SW620 cells used as target cells, and then KE4-CTL cells used in Examples 1 and 2 were added and then cultured to assay a CTL-inducing activity using the amount of IFN-γ produced in the culture supernatant as the indicator. In addition, KE4 as a positive control was used for the target cell. Other methods were similar to those used in Example 4.

Sequence	activity of enhancing the IFN-γ production in CTLs [1]	ability to activate HLA-A24-restricted CTL relative to peptide derived from Lck [4]	also measured
SYEPSHDGDL [Lck7l-80]	had an activity of enhancing the IFN-γ production in CTLs		
SVLEDFFTA (listed as Homo sapiens) [Lck492-500]			enhancement of IFN-γ production by OK-CTL [2]: enhanced the production of IFN-γ; enhancement of IFN-γ production by GK-CTL subline (2-2-4) [3]: enhanced the production of IFN-γ
TFEYIQSFL (listed as Homo sapiens) [Yes508-516]		comparable to a peptide derived from Lck or more	
EYMENGSLV [Lck3l7-325]	had an activity of enhancing the IFN-γ production in CTLs		
AFIEERNYI [Lck353-361]	had an activity of enhancing the IFN-γ production in CTLs		
QLQHQRLVRL (listed as Homo sapiens) [Lck294-303]			enhancement of IFN-γ production by OK-CTL [2]: enhanced the production of IFN-γ; enhancement of IFN-γ production by GK-CTL subline (2-2-4) [3]: enhanced the production of IFN-γ
TFEYLQSFL (listed as Homo sapiens) [Fyn512-520]		comparable to a peptide derived from Lck or more	
TFEFLQSVL (listed as Homo sapiens) [Blk482-490]		comparable to a peptide derived from Lck or more	
